Measured values reported in ChEMBL document CHEMBL1147552, “Novel CCR1 antagonists with improved metabolic stability” (Bioorg Med Chem Lett, 2004).
pIC50: −log10 of the molar value. In brackets after ≈: the same amount, converted by molar mass.

What was measured:
[1] = target: T1, C-C chemokine receptor type 1 (Homo sapiens, UniProt P32246); test: Inhibition of CCL3 binding to C-C chemokine receptor type 1
T1 sequence (P32246 whole entry): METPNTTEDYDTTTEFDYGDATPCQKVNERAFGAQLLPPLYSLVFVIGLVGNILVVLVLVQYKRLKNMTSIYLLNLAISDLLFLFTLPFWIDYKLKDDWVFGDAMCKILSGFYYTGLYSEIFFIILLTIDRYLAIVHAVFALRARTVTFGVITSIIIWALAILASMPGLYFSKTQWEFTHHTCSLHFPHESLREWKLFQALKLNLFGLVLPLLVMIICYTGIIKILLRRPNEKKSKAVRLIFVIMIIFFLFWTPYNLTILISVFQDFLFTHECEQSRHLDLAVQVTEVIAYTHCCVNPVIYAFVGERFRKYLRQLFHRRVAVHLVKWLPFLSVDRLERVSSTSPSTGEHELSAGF

[2] = species: Homo sapiens; details: Liver, Microsome
[3] = Elimination Half-life of compound was determined in dog; details: in vivo
[4] = Aqueous solubility of compound was determined
[5] = Volume of distribution of compound was determined in dog; details: in vivo
[6] = Plasma clearance of compound was determined in monkey; details: cercopithecidae
[7] = Oral bioavailability in monkey; details: cercopithecidae, in vivo
[8] = Volume of distribution of compound was determined in monkey; details: cercopithecidae, in vivo
[9] = Plasma clearance of compound was determined in dog

pIC50 [1]	SMILES	CL (mL.min-1.kg-1) [2]	other results
7.25	NC(=O)C(C[C@H](O)[C@H](Cc1ccccc1)NC(=O)c1cnc2ccccc2n1)C1(O)CCC(F)(F)CC1 (stereo partly specified)	6.4	
< 4.60	CC(C)(O)CCC(C[C@H](O)[C@H](Cc1ccc(F)cc1)NC(=O)c1cnc2ccccc2n1)C(N)=O (stereo partly specified)		
8.15	CC(C)(F)CCC(C[C@H](O)[C@H](Cc1ccccc1)NC(=O)c1cnc2ccccc2n1)C(=O)NN (stereo partly specified)	32.7	
5.46	NC(=O)C(C[C@H](O)[C@H](Cc1ccccc1)NC(=O)c1cnc2ccccc2n1)C1CCOCC1 (stereo partly specified)		
6.24	CC(C)(O)CC[C@H](C[C@H](O)[C@H](Cc1ccccc1)NC(=O)c1cnc2ccccc2n1)C(N)=O	4.9	
8.10	NC(=O)C(C[C@H](O)[C@H](Cc1ccccc1)NC(=O)c1cnc2ccccc2n1)C1CCCCC1 (stereo partly specified)	242	
7.28	CC(C)(O)CCC(C[C@H](O)[C@H](Cc1ccccc1F)NC(=O)c1cnc2ccccc2n1)C(N)=O (stereo partly specified)	16.5	
6.07	CC(C)(F)CCC(C[C@H](O)[C@H](Cc1ccccc1)NC(=O)c1cnc2ccccc2n1)C(=O)NCc1ccccc1 (stereo partly specified)		
5.25	CN1CCN(C(=O)C(CCC(C)(C)F)C[C@H](O)[C@H](Cc2ccccc2)NC(=O)c2cnc3ccccc3n2)CC1 (stereo partly specified)	647	
5.63	CC(C)(F)CCC(C[C@H](O)[C@H](Cc1ccccc1)NC(=O)c1cnc2ccccc2n1)C(=O)N1CCCC1 (stereo partly specified)		
7.70	NC(=O)C(C[C@H](O)[C@H](Cc1ccccc1)NC(=O)c1cnc2ccccc2n1)C1CCC(F)(F)CC1 (stereo partly specified)		
7.57	CC(C)(F)CCC(C[C@H](O)[C@H](Cc1ccccc1)NC(=O)c1cnc2ccccc2n1)C(=O)NO (stereo partly specified)		
8.15	O=C(N[C@@H](Cc1ccccc1)[C@@H](O)CC(C(=O)NO)C1CCC(F)(F)CC1)c1cnc2ccccc2n1 (stereo partly specified)	6.1	half-life [3]: 30 min; solubility [4]: 12 µg/mL (≈ 23.4 µM); Vd [5]: 1.3 L/kg; clearance [6]: 33 mL/min/kg; bioavailability [7]: < 1.1%; Vd [8]: 1.8 L/kg; clearance [9]: 38 mL/min/kg
8.05	CC(C)(F)CC[C@H](C[C@H](O)[C@H](Cc1ccccc1)NC(=O)c1cnc2ccccc2n1)C(N)=O		
7.12	CCNC(=O)C(CCC(C)(C)F)C[C@H](O)[C@H](Cc1ccccc1)NC(=O)c1cnc2ccccc2n1 (stereo partly specified)		
7.27	NC(=O)C(C[C@H](O)[C@H](Cc1ccccc1)NC(=O)c1cnc2ccccc2n1)C1(O)CCCCC1 (stereo partly specified)	47.7	
